Where a name gives a salt, the structure may show the parent alone.
Columns and labels:
mexB (PA) strain = experiment: Combinational effect with antibacterial agent against Pseudomonas aeruginosa (Test Examples 2 and 4): mexB (PA) strain with LVFX, TC or AZT at 1/4 MIC, EC99; assay type: cell-based; settings: for EC99, mexB (PA), AZT / EC99, mexB (PA), LVFX / EC99, mexB (PA), TC: Table 52, Test Example 2, 16 to 20 hours culture, OD595; for EC99, mexB (PA), AZT / EC99, combinational effect with AZT, mexB (PA): combined with AZT at 1/4 MIC; for EC99, mexB (PA), LVFX / EC99, combinational effect with LVFX, mexB (PA): combined with LVFX at 1/4 MIC; for EC99, mexB (PA), TC / EC99, combinational effect with TC, mexB (PA): combined with TC at 1/4 MIC; for EC99, combinational effect with AZT, mexB (PA) / EC99, combinational effect with LVFX, mexB (PA) / EC99, combinational effect with TC, mexB (PA): mexB (PA) strain, Test Example 4
Description: (§1) The combinational effect of the test compound with the antibacterial agent against Pseudomonas aeruginosa was evaluated.
For the evaluation of the inhibitory ability against MexAB-OprM, a mutant strain of Pseudomonas aeruginosa in which MexAB-OprM was expressed as a main drug efflux pump (hereinafter, referred to as a “mexB (PA) strain”) was used. LVFX, TC, or AZT was used as the antibacterial agent used in combination.
The mexB (PA) strain is a strain produced by deleting the genes of MexCD-OprJ, MexEF-OprN, and MexXY in the drug efflux pump of Pseudomonas aeruginosa described in FEMS Microbiology Letters, 2001, Vol. 202, pp. 139 to 143. In the mexB (PA) strain, an expression level of MexB as a drug efflux pump is accelerated.
TC is a tetracycline-based antibacterial agent and is a drug that is discharged outside the bacteria by MexB. AZT is a monobactam-based antibacterial agent and is a drug that is discharged outside the bacteria by MexB.
(§2) AMK and GM are aminoglycoside-based antibacterial agents, and are drugs that are not discharged outside the bacteria by MexB but are discharged outside the bacteria by MexY For the culture of each Pseudomonas aeruginosa strain, a 96-well plate (amount of culture medium per well: 100 μL) was used, and cation-adjusted Mueller Hinton broth (CAMHB) was used. The inoculation amount of the bacteria was set to 10^4 to 5 CFU/well.
(§3) The mexB (PA) strain and the S-3769 strain were cultured for 16 to 20 hours in a culture medium to which each antibacterial agent and test compounds at various concentrations (0 to 800 μM) were added, and the proliferation of the bacterial strains was evaluated by optical turbidity at 595 nm (OD595). The concentration of the antibacterial agent in the culture medium was set to ¼ MIC.
(§4) The proliferation of bacteria in a case where the test compound and the antibacterial agent were not added was measured, and compared with the proliferation of bacteria in a case where the test compound in a case where the antibacterial agent was added at the concentration of ¼ MIC was contained, and the lowest concentration of the test compound at which the proliferation was inhibited by 99% or more was defined as the drug efflux pump inhibitory ability of the test compound as 99% inhibitory effect concentration (EC99).
(§5) The effect of suppressing the proliferation of each test compound in combination with an antibacterial agent at ¼ MIC for mexB (PA) or the S-3769 strain was evaluated as follows according to the value of EC99. • S: EC99≤12.5 μM • A: 12.5 μM<EC99≤25 μM • B: 25 μM<EC99≤100 μM • C: 100 μM<EC99
(§6) The combinational effect of the test compound with the antibacterial agent against Pseudomonas aeruginosa was evaluated in the same manner as in Test Example 2.

S-3769 strain = experiment: Combinational effect with antibacterial agent against Pseudomonas aeruginosa (Test Examples 2 and 4): S-3769 strain with AMK or GM at 1/4 MIC, EC99; assay type: cell-based; settings: for EC99, S-3769 strain, AMK / EC99, S-3769 strain, GM: Table 52, Test Example 2, 16 to 20 hours culture, OD595; for EC99, S-3769 strain, AMK / EC99, combinational effect with AMK, S-3769 strain: combined with AMK at 1/4 MIC; for EC99, S-3769 strain, GM / EC99, combinational effect with GM, S-3769 strain: combined with GM at 1/4 MIC; for EC99, combinational effect with AMK, S-3769 strain / EC99, combinational effect with GM, S-3769 strain: Test Example 4
Description: as §1
The […] was used for evaluating the inhibitory ability against MexXY-OprM. AMK or GM was used as the antibacterial agent used in combination.
The S-3769 strain is a clinically isolated strain collected from a domestic medical institution, and is a strain in which the expression level of MexY is accelerated.
as §2, §3, §4, §5, §6

SMILES | EC99, mexB (PA), AZT (mexB (PA) strain) | EC99, mexB (PA), LVFX (mexB (PA) strain) | EC99, mexB (PA), TC (mexB (PA) strain) | EC99, S-3769 strain, AMK (S-3769 strain) | EC99, S-3769 strain, GM (S-3769 strain) | EC99, combinational effect with AZT, mexB (PA) (mexB (PA) strain) | EC99, combinational effect with LVFX, mexB (PA) (mexB (PA) strain) | EC99, combinational effect with TC, mexB (PA) (mexB (PA) strain) | EC99, combinational effect with AMK, S-3769 strain (S-3769 strain) | EC99, combinational effect with GM, S-3769 strain (S-3769 strain)
CCOc1cccc(F)c1CN1CCN(C(=O)[C@H](N)C2CCN(CCc3c(-c4ccccc4)ccc(Cl)c3F)CC2)CC1 [Example 79, Hydrobromide of (R)-2-amino-2-(1-(2-(4-chloro-3-fluoro-[1,1′-biphenyl]-2-yl)ethyl)piperidin-4-yl)-1-(4-(2-ethoxy-6-fluorobenzyl)piperazin-1-yl)ethan-1-one] | B (25 μM<EC99≤100 μM) | B (25 μM<EC99≤100 μM) | B (25 μM<EC99≤100 μM) | S (EC99≤12.5 μM) | A (12.5 μM<EC99≤25 μM) |  |  |  |  | 
COc1c(CN2CCN(C(=O)[C@H](N)C3CCN(CCc4cc(Cl)ccc4-c4ccccc4)CC3)CC2)cccc1B(O)O [Example 537, Hydrobromide of (R)-(3-((4-(2-amino-2-(1-(2-(4-chloro-[1,1-biphenyl]-2-yl)ethyl)piperidin-4-yl)acetyl)piperazin-1-yl)methyl)-2-methoxyphenyl)boronic acid] |  |  |  |  |  | C (100 μM<EC99) | C (100 μM<EC99) | B (25 μM<EC99≤100 μM) | B (25 μM<EC99≤100 μM) | A (12.5 μM<EC99≤25 μM)
CCOc1cccc(F)c1CN1CCN(C(=O)[C@H](N)C2CCN(CCc3cc(Cl)ccc3-c3ccccc3N)CC2)CC1 [Example 97, (R)-2-amino-2-(1-(2-(2′-amino-4-chloro-[1,1′-biphenyl]-2-yl)ethyl)piperidin-4-yl)-1-(4-(2-ethoxy-6-fluorobenzyl)piperazin-1-yl)ethan-1-one] | S (EC99≤12.5 μM) | S (EC99≤12.5 μM) | A (12.5 μM<EC99≤25 μM) | A (12.5 μM<EC99≤25 μM) | S (EC99≤12.5 μM) |  |  |  |  | 
N[C@@H](C(=O)N1CCN(Cc2c(O)cccc2C(F)(F)F)CC1)C1CCN(CCc2cc(Cl)ccc2-c2ccccc2)CC1 [Example 588, Hydrochloride of (R)-2-amino-2-(1-(2-(4-chloro-[1,1-biphenyl]-2-yl)ethyl)piperidin-4-yl)-1-(4-(2-hydroxy-6-(trifluoromethyl)benzyl)piperazin-1-yl) ethan-1-one] |  |  |  |  |  | B (25 μM<EC99≤100 μM) | A (12.5 μM<EC99≤25 μM) | A (12.5 μM<EC99≤25 μM) | A (12.5 μM<EC99≤25 μM) | A (12.5 μM<EC99≤25 μM)
CCOc1cccc(F)c1CN1CCN(C(=O)[C@H](N)C2CCN(CCc3cc(OC)ccc3-c3ccccc3)CC2)CC1 [Example 51, Hydrobromide of (R)-2-amino-1-(4-(2-ethoxy-6-fluorobenzyl)piperazin-1-yl)-2-(1-(2-(4-methoxy-[1,1′-biphenyl]-2-yl)ethyl)piperidin-4-yl)ethan-1-one] | B (25 μM<EC99≤100 μM) | B (25 μM<EC99≤100 μM) | B (25 μM<EC99≤100 μM) | A (12.5 μM<EC99≤25 μM) | S (EC99≤12.5 μM) |  |  |  |  | 
CCSc1cc(F)ccc1CN1CCN(C(=O)[C@H](N)C2CCN(CCc3ncccc3-c3ccccc3)CC2)CC1 [Example 542, Hydrobromide of (R)-2-amino-1-(4-(2-(ethylthio)-4-fluorobenzyl)piperazin-1-yl)-2-(1-(2-(3-phenylpyridin-2-yl)ethyl)piperidin-4-yl)ethan-1-one] |  |  |  |  |  | B (25 μM<EC99≤100 μM) | B (25 μM<EC99≤100 μM) | B (25 μM<EC99≤100 μM) | B (25 μM<EC99≤100 μM) | B (25 μM<EC99≤100 μM)
CCOc1cccc(F)c1CN1CCN(C(=O)[C@H](N)C2CCN(CCc3cc(Cl)ccc3-c3cccc(F)c3O)CC2)CC1 [Example 581, Hydrochloride of (R)-2-amino-2-(1-(2-(4-chloro-3′-fluoro-2′-hydroxy-[1,1-biphenyl]-2-yl)ethyl)piperidin-4-yl)-1-(4-(2-ethoxy-6-fluorobenzyl)piperazin-1-yl)ethan-1-one] |  |  |  |  |  | B (25 μM<EC99≤100 μM) | A (12.5 μM<EC99≤25 μM) | B (25 μM<EC99≤100 μM) | A (12.5 μM<EC99≤25 μM) | A (12.5 μM<EC99≤25 μM)
CCOc1cccc(F)c1CN1CCN(C(=O)CN2CCC(CCc3ccccc3)(CNCCN)CC2)CC1 [Example 426, hydrochloride of 2-(4-(((2-aminoethyl)amino)methyl)-4-phenethylpiperidin-1-yl)-1-(4-(2-ethoxy-6-fluorobenzyl)piperazin-1-yl)ethan-1-one] | B (25 μM<EC99≤100 μM) |  | B (25 μM<EC99≤100 μM) | B (25 μM<EC99≤100 μM) | B (25 μM<EC99≤100 μM) |  |  |  |  | 
CCOc1cccc(F)c1CN1CCN(C(=O)[C@H](N)C2CCN(CCc3c(Cl)cccc3-c3ccccc3)CC2)CC1 [Example 53, Hydrobromide of (R)-2-amino-2-(1-(2-(3-chloro-[1,1′-biphenyl]-2-yl)ethyl)piperidin-4-yl)-1-(4-(2-ethoxy-6-fluorobenzyl)piperazin-1-yl)ethan-1-one] | B (25 μM<EC99≤100 μM) | B (25 μM<EC99≤100 μM) | B (25 μM<EC99≤100 μM) | S (EC99≤12.5 μM) | S (EC99≤12.5 μM) |  |  |  |  | 
CCOc1cccc(F)c1CN1CCN(C(=O)[C@H](N)C2CCN(CCc3cc(Cl)ccc3-c3csc4ccccc34)CC2)CC1 [Example 550, Hydrobromide of (R)-2-amino-2-(1-(2-(benzo[b]thiophen-3-yl)-5-chlorophenethyl)piperidin-4-yl)-1-(4-(2-ethoxy-6-fluorobenzyl)piperazin-1-yl)ethan-1-one] |  |  |  |  |  | A (12.5 μM<EC99≤25 μM) | S (EC99≤12.5 μM) | A (12.5 μM<EC99≤25 μM) | A (12.5 μM<EC99≤25 μM) | A (12.5 μM<EC99≤25 μM)
CNc1cccc(-c2ccc(Cl)cc2CCN2CCC([C@@H](N)C(=O)N3CCN(Cc4ccccc4SC)CC3)CC2)c1 [Example 565, Hydrobromide of (R)-2-amino-2-(1-(2-(4-chloro-3′-(methylamino)-[1,1-biphenyl]-2-yl)ethyl)piperidin-4-yl)-1-(4-(2-(methylthio)benzyl)piperazin-1-yl)ethan-1-one] |  |  |  |  |  | A (12.5 μM<EC99≤25 μM) | S (EC99≤12.5 μM) | S (EC99≤12.5 μM) | B (25 μM<EC99≤100 μM) | B (25 μM<EC99≤100 μM)
